Reference: US20130158362A1 (INFACARE PHARMACEUTICAL CORPORATION, priority 2011, published 2013)

Tested on: total serum bilirubin (TSB)
Assay: Phase 2b trial: total serum bilirubin (TSB), adjusted and unadjusted, change from baseline
Format: in vivo, human
Set-up: total serum bilirubin / total serum bilirubin, Delta (change from baseline) / Change from baseline of total serum bilirubin: unit not given here
Details: for change from baseline in adjusted TSB, LS mean difference versus placebo, MMRM / change from baseline in adjusted TSB, LS means (SEM), MMRM: observed case
Procedure: Three cohorts of subjects were recruited. This clinical study was designed to evaluate safety and efficacy parameters in each cohort.
Scheduled assessments (including TSB) occurred before treatment and at 0.75 and 2 hours (or 1.5 and 3 hours, depending on PK blood sampling assignment); 6, 12, 24, 48, and 72 hours; and 14 and 30 (except TSB) days after treatment or early termination.
The primary efficacy endpoint was the change in adjusted TSB from baseline to 48 hours after treatment. The adjusted TSB was a calculation of the percentage variance of the TSB level from the age specific threshold for PT initiation per the AAP Guidelines, i.e., an indication of the distance below the PT threshold by time.
The Secondary Efficacy Endpoints were the change from baseline in unadjusted TSB at 48 hours after treatment, change from baseline in adjusted and unadjusted TSB at various other time points after treatment, percent change from baseline in unadjusted TSB, proportion of subjects who require PT/exchange transfusion (ET), time to PT/ET, duration of PT and time to hospital discharge.
Intent-to-treat population (ITT): Defined as all subjects who were randomly assigned treatment in the clinical study, had received IMP, and had at least 1 post baseline TSB measurement during the first 48 hours after treatment. Subjects were summarized based on randomized treatment.
Analysis of Efficacy Parameters: The primary efficacy analysis applied the analysis of covariance (ANCOVA) method to determine if there was a significant difference between treatment groups in change in adjusted TSB levels from baseline to 48 hours post baseline after controlling for the effects of gestational age and adjusted baseline TSB levels. If assumptions of ANCOVA appeared to be violated, a Wilcoxon rank-sum test could be performed instead. Time-to-event variables were analyzed using the Kaplan-Meier method, and Kaplan-Meier survival curves were presented.

[1] = 4.5 mg/kg IM, 24 h, ITT, LOCF, ANCOVA
[2] = 4.5 mg/kg IM, 48 h/early termination, ITT, LOCF
[3] = 4.5 mg/kg IM, 48 h, ITT, LOCF, ANCOVA
[4] = 4.5 mg/kg IM, 48 hours, intent to treat, preliminary data
[5] = 4.5 mg/kg IM, 72 h, ITT, LOCF, ANCOVA
[6] = 4.5 mg/kg IM, 14 days/early termination, ITT, LOCF
[7] = 4.5 mg/kg IM, 14 days/early termination, ITT, LOCF, ANCOVA
[8] = 4.5 mg/kg versus the placebo group, 48 Hours/Early termination, PP Population, ANCOVA
[9] = 4.5 mg/kg, 48 Hours/Early termination, PP Population, LOCF
[10] = 4.5 mg/kg, 6 hrs, unadjusted TSB, ITT Population
[11] = 4.5 mg/kg, 12 hrs, unadjusted TSB, ITT Population
[12] = 4.5 mg/kg, 24 hrs, unadjusted TSB, ITT Population
[13] = 4.5 mg/kg, 48 hrs, unadjusted TSB, ITT Population
[14] = 4.5 mg/kg, baseline, PP Population
[15] = 4.5 mg/kg, baseline, unadjusted TSB, ITT Population

tin IV mesoporphyrin IX dichloride [Stannsoporfin]
change from baseline in adjusted TSB, Median (4.5 mg/kg IM, 24 h, ITT, LOCF): −11.15%
change from baseline in unadjusted TSB, Mean (SD) (4.5 mg/kg IM, 24 h, ITT, LOCF): 0.93 (1.990) mg/dL
change from baseline in unadjusted TSB, Median (4.5 mg/kg IM, 24 h, ITT, LOCF): 1.20 mg/dL
unadjusted TSB, Mean (SD) (4.5 mg/kg IM, 24 h, ITT, LOCF): 10.52 (2.668) mg/dL
unadjusted TSB, Median (4.5 mg/kg IM, 24 h, ITT, LOCF): 9.66 mg/dL
change from baseline in adjusted TSB, LS mean (SEM) [1]: −11.59 (5.674) %
change from baseline in adjusted TSB, LS mean difference versus placebo [1]: −11.50%
change from baseline in unadjusted TSB, LS Mean (SEM) [1]: 1.05 (0.665) mg/dL
change from baseline in unadjusted TSB, LS Mean Difference versus placebo [1]: -1.70 mg/dL
change from baseline in adjusted TSB, LS mean difference versus placebo, MMRM (4.5 mg/kg IM, 24 h, ITT): −14.70%
change from baseline in adjusted TSB, LS means (SEM), MMRM (4.5 mg/kg IM, 24 h, ITT): −16.26 (5.495) %
adjusted TSB, Mean (SD) [2]: −34.14 (14.733) %
adjusted TSB, Median [2]: −32.00%
change from baseline in adjusted TSB, Mean (SD) (4.5 mg/kg IM, 48 h, ITT, LOCF): −24.95 (19.261) %
change from baseline in adjusted TSB, Median (4.5 mg/kg IM, 48 h, ITT, LOCF): −19.95%
change from baseline in unadjusted TSB, Mean (SD) (4.5 mg/kg IM, 48 h, ITT, LOCF): 0.80 (2.788) mg/dL
change from baseline in unadjusted TSB, Median (4.5 mg/kg IM, 48 h, ITT, LOCF): 1.45 mg/dL
unadjusted TSB, Mean (SD) (4.5 mg/kg IM, 48 h, ITT, LOCF): 10.39 (2.650) mg/dL
unadjusted TSB, Median (4.5 mg/kg IM, 48 h, ITT, LOCF): 10.35 mg/dL
change from baseline in adjusted TSB, LS mean (SEM) (primary endpoint) [3]: −16.51 (6.925) %
change from baseline in adjusted TSB, LS mean difference versus placebo [3]: −14.93%
change from baseline in unadjusted TSB, LS Mean (SEM) [3]: 1.60 (1.020) mg/dL
change from baseline in unadjusted TSB, LS Mean Difference versus placebo [3]: -2.63 mg/dL
change from baseline in adjusted TSB, LS mean (SEM) (primary endpoint) (4.5 mg/kg IM, 48 h, ITT, LOCF, ANCOVA, listed as stannsoporfin): 16.5%
change from baseline in adjusted TSB, LS mean difference versus placebo, MMRM (4.5 mg/kg IM, 48 h, ITT): −20.66%
change from baseline in adjusted TSB, LS means (SEM), MMRM (4.5 mg/kg IM, 48 h, ITT): −27.34 (7.287) %
total serum bilirubin [4]: 10.39 ± 2.7
total serum bilirubin, Delta (change from baseline) [4]: 0.80 ± 2.8
total serum bilirubin, Delta (change from baseline) (4.5 mg/kg IM, 48 hours, treated per protocol, preliminary data): 0.04 ± 3.1
adjusted TSB, Mean (SD) (4.5 mg/kg IM, 72 h/early termination, ITT, LOCF): −38.38 (16.637) %
change from baseline in adjusted TSB, Mean (SD) (4.5 mg/kg IM, 72 h, ITT, LOCF): −29.19 (19.225) %
change from baseline in adjusted TSB, Median (4.5 mg/kg IM, 72 h, ITT, LOCF): −21.45%
change from baseline in unadjusted TSB, Mean (SD) (4.5 mg/kg IM, 72 h, ITT, LOCF): 0.15 (3.740) mg/dL
change from baseline in unadjusted TSB, Median (4.5 mg/kg IM, 72 h, ITT, LOCF): 1.90 mg/dL
unadjusted TSB, Mean (SD) (4.5 mg/kg IM, 72 h, ITT, LOCF): 9.73 (3.672) mg/dL
unadjusted TSB, Median (4.5 mg/kg IM, 72 h, ITT, LOCF): 11.15 mg/dL
change from baseline in adjusted TSB, LS mean (SEM) [5]: −19.00 (8.184) %
change from baseline in adjusted TSB, LS mean difference versus placebo [5]: −14.25%
change from baseline in unadjusted TSB, LS Mean (SEM) [5]: 1.38 (1.305) mg/dL
change from baseline in unadjusted TSB, LS Mean Difference versus placebo [5]: -3.57 mg/dL
change from baseline in unadjusted TSB, Mean (SD) [6]: −4.28 (3.828) mg/dL
change from baseline in unadjusted TSB, Median [6]: -5.73 mg/dL
unadjusted TSB, Mean (SD) [6]: 5.31 (4.596) mg/dL
unadjusted TSB, Median [6]: 2.98 mg/dL
change from baseline in unadjusted TSB, LS Mean (SEM) [7]: −3.02 (1.524) mg/dL
change from baseline in unadjusted TSB, LS Mean Difference versus placebo [7]: -0.72 mg/dL
48 Hours/Early termination change from baseline in unadjusted TSB, LS mean difference [8]: -2.82 mg/dL
P-value of LS mean difference, change from baseline in unadjusted TSB [8]: 0.030
48 Hours/Early termination change from baseline in unadjusted TSB, Max [9]: 3.6 mg/dL
48 Hours/Early termination change from baseline in unadjusted TSB, Mean (SD) [9]: 0.40 (3.111) mg/dL
48 Hours/Early termination change from baseline in unadjusted TSB, Median [9]: 0.70 mg/dL
48 Hours/Early termination change from baseline in unadjusted TSB, Min [9]: -3.4 mg/dL
48 Hours/Early termination unadjusted TSB, Max [9]: 13.4 mg/dL
48 Hours/Early termination unadjusted TSB, Mean (SD) [9]: 9.88 (2.807) mg/dL
48 Hours/Early termination unadjusted TSB, Median [9]: 10.00 mg/dL
48 Hours/Early termination unadjusted TSB, Min [9]: 5.6 mg/dL
48 Hours/Early termination change from baseline in unadjusted TSB, LS mean (SEM) (4.5 mg/kg, 48 Hours/Early termination, PP Population, LOCF, ANCOVA): 1.11 (1.095) mg/dL
6 hrs Percent Change from Baseline in TSB, Max [10]: 26.4%
6 hrs Percent Change from Baseline in TSB, Mean (SD) [10]: 17.33 (5.373) %
6 hrs Percent Change from Baseline in TSB, Min [10]: 10.7%
6 hrs TSB, Max [10]: 14.8 mg/dL
6 hrs TSB, Mean (SD) [10]: 11.31 (2.237) mg/dL
6 hrs TSB, Min [10]: 7.6 mg/dL
12 hrs Percent Change from Baseline in TSB, Max [11]: 29.2%
12 hrs Percent Change from Baseline in TSB, Mean (SD) [11]: 20.16 (6.326) %
12 hrs Percent Change from Baseline in TSB, Min [11]: 9.8%
12 hrs TSB, Max [11]: 14.8 mg/dL
12 hrs TSB, Mean (SD) [11]: 11.54 (2.067) mg/dL
12 hrs TSB, Min [11]: 8.0 mg/dL
24 hrs Percent Change from Baseline in TSB, Max [12]: 43.8%
24 hrs Percent Change from Baseline in TSB, Mean (SD) [12]: 10.75 (23.016) %
24 hrs Percent Change from Baseline in TSB, Median [12]: 12.15%
24 hrs Percent Change from Baseline in TSB, Min [12]: −14.8%
24 hrs TSB, Max [12]: 14.0 mg/dL
24 hrs TSB, Mean (SD) [12]: 10.52 (2.668) mg/dL
24 hrs TSB, Min [12]: 7.7 mg/dL
48 hrs Percent Change from Baseline in TSB, Max [13]: 56.3%
48 hrs Percent Change from Baseline in TSB, Mean (SD) [13]: 14.87 (33.167) %
48 hrs Percent Change from Baseline in TSB, Min [13]: −37.7%
48 hrs TSB, Max [13]: 13.4 mg/dL
48 hrs TSB, Mean (SD) [13]: 10.69 (2.708) mg/dL
48 hrs TSB, Min [13]: 5.6 mg/dL
mean TSB levels (4.5 mg/kg, 14 days after treatment (text, not LOCF table)): 2.94 mg/dL
Baseline unadjusted TSB, Max [14]: 12.8 mg/dL
Baseline unadjusted TSB, Mean (SD) [14]: 9.47 (2.319) mg/dL
Baseline unadjusted TSB, Median [14]: 9.00 mg/dL
Baseline unadjusted TSB, Min [14]: 6.4 mg/dL
Baseline TSB, Max [15]: 12.8 mg/dL
Baseline TSB, Mean (SD) [15]: 9.59 (1.911) mg/dL
Baseline TSB, Min [15]: 6.4 mg/dL
time after administration at which an effect begins (bilirubin levels, FIG. 7): 6 to 12 h
